Literature values in article PMC12371493 (ACS Bio & Med Chem Au, 2025).

Test system: MC38-hPD-L1 tumor
Settings: dosed SubQ; ref not given

SMILES: CO[C@H]1[C@H]2OP(=O)(O)OC[C@@]34C[C@@H]3[C@@H](n3cnc5c(N)ncnc53)[C@H](O)[C@@H]4O[P@](=O)(S)OC[C@H]1O[C@H]2n1cnc2c(=O)[nH]c(N)nc21 [ALG-031048]
- reduction of MC38-hPD-L1 tumor: could reduce MC38-hPD-L1tumor, albeit modestly
